Here are results for twelve molecules from US8530667B2, “Herbicides” (Syngenta Limited, priority 2007, dated 2013).

What all share (type): in vivo
Assay [1] concerns Setaria faberi (SETFA). The assay can be described thus: Example B pre-emergence herbicidal activity, glasshouse pot test. Particulars: 312 h, Rate 250 g/ha, evaluated after 13 days, read-out: Pre-Emergence Activity SETFA (100=total damage to plant; 0=no damage to plant). The protocol: (§1) Seeds of a variety of test species were sown in standard soil in pots. After cultivation for one day (pre-emergence) or after 8 days cultivation (post-emergence) under controlled conditions in a glasshouse (at 24/16° C., day/night; 14 hours light; 65% humidity), the plants were sprayed with an aqueous spray solution derived from the formulation of the technical active ingredient in acetone/water (50:50) solution containing 0.5% Tween 20 (polyoxyethelyene sorbitan monolaurate, CAS RN 9005-64-5). The test plants were then grown in a glasshouse under controlled conditions in a glasshouse (at 24/16° C., day/night; 14 hours light; 65% humidity) and watered twice daily. After 13 days for pre and post-emergence, the test was evaluated (100=total damage to plant; 0=no damage to plant). Alopecurus myosuroides (ALOMY), Avena fatua (AVEFA), Setaria faberi (SETFA), Echinochloa crus-galli (ECHCG) and Amaranthus retoflexus (AMARE)

In assay [2] the test system is Amaranthus retoflexus (AMARE). The assay is described as above. The note with it: Amaranthus retroflexus, 312 h, Rate 250 g/ha, evaluated after 13 days, read-out: Pre-Emergence Activity AMARE (100=total damage to plant; 0=no damage to plant). The protocol: as §1
Assay [3] relates to Echinochloa crus-galli (ECHCG). The description is as above. Particulars: 312 h, Rate 250 g/ha, evaluated after 13 days, read-out: Pre-Emergence Activity ECHCG (100=total damage to plant; 0=no damage to plant). The protocol: as §1
Assay [4] concerns Alopecurus myosuroides (ALOMY). Described as above. The note with it: 312 h, Rate 250 g/ha, evaluated after 13 days, read-out: Pre-Emergence Activity ALOMY (100=total damage to plant; 0=no damage to plant). The protocol: as §1
Assay [5] relates to Avena fatua (AVEFA). Described as above. Particulars: 312 h, Rate 250 g/ha, evaluated after 13 days, read-out: Pre-Emergence Activity AVEFA (100=total damage to plant; 0=no damage to plant). The protocol: as §1
The test system of assay [6] is Setaria faberi (SETFA). In words: Example B post-emergence herbicidal activity, glasshouse pot test. The note with it: 312 h, rate 250 g/ha, evaluated after 13 days, read-out: Post-emergence activity SETFA (100=total damage to plant; 0=no damage to plant). The protocol: as §1
Assay [7] has as its system Amaranthus retoflexus (AMARE). Described as above. Particulars: Amaranthus retroflexus, 312 h, rate 250 g/ha, evaluated after 13 days, read-out: Post-emergence activity AMARE (100=total damage to plant; 0=no damage to plant). The protocol:
as §1

Assay [8] deals with Echinochloa crus-galli (ECHCG). The description is as above. Particulars: 312 h, rate 250 g/ha, evaluated after 13 days, read-out: Post-emergence activity ECHCG (100=total damage to plant; 0=no damage to plant). The protocol: as §1
For assay [9], the system named is Alopecurus myosuroides (ALOMY). Described as above. The note with it: 312 h, rate 250 g/ha, evaluated after 13 days, read-out: Post-emergence activity ALOMY (100=total damage to plant; 0=no damage to plant). The protocol: as §1
Assay [10] concerns Avena fatua (AVEFA). The assay is described as above. Particulars: 312 h, rate 250 g/ha, evaluated after 13 days, read-out: Post-emergence activity AVEFA (100=total damage to plant; 0=no damage to plant). The protocol:
as §1

Molecules are shown by their SMILES.

As to `Cc1ccc(-c2nc(C3C(=O)[C@@H]4[C@H](C3=O)[C@H]3CC[C@@H]4O3)c(C)s2)cc1` (stereo partly drawn) [Compound T20], the pest or weed control at 250 g/ha in the assay on Setaria faberi (SETFA) [1] amounted to 80%; in assay [2] it was 0%; in assay [3], 70%; in assay [4], 50%; in the assay with Avena fatua (AVEFA) [5], 60%; in the assay with Setaria faberi (SETFA) [6], 100%. For the same molecule, the pest or weed control at 250 g/ha amounted to 0% in assay [7], 100% in assay [8], 90% in [9] and 100% in the assay on Avena fatua (AVEFA) [10].

With `CCc1sc(-c2ccc(Br)cc2)nc1C1C(=O)[C@@H]2[C@H](C1=O)[C@H]1CC[C@@H]2O1` (stereo partly drawn) [Compound T29], the pest or weed control at 250 g/ha with Setaria faberi (SETFA) [1] was 90%; in assay [2], 20%; in [3], 90%; in assay [4] it was 50%; in the assay on Avena fatua (AVEFA) [5], 90%; in the assay on Setaria faberi (SETFA) [6] it was 100%. The pest or weed control at 250 g/ha in assay [7] is 0%; in [8], 100%; in assay [9], 100%; with Avena fatua (AVEFA) [10] it was 100%.

As for `Cc1sc(-c2ccc(Cl)c(Cl)c2)nc1C1C(=O)[C@@H]2[C@H](C1=O)[C@H]1CC[C@@H]2O1` (stereo partly drawn) [Compound T31], the pest or weed control at 250 g/ha in the assay on Setaria faberi (SETFA) [1] came to 90%; in assay [2], 20%; in [3], 90%; in assay [4] it was 60%; with Avena fatua (AVEFA) [5] it was 70%; with Setaria faberi (SETFA) [6], 70%. In addition, the pest or weed control at 250 g/ha in [7] came to 0%; in [8], 80%; in [9] it was 60%; in the assay with Avena fatua (AVEFA) [10], 50%.

For `Cc1sc(-c2cccs2)nc1C1C(=O)[C@@H]2[C@H](C1=O)[C@H]1CC[C@@H]2O1` (stereo partly drawn) [Compound T32], the pest or weed control at 250 g/ha with Setaria faberi (SETFA) [1] was found to be 40%; in assay [2], 0%; in assay [3], 0%; in assay [4] it was 0%; in the assay on Avena fatua (AVEFA) [5], 0%; with Setaria faberi (SETFA) [6] it was 70%. Also, the pest or weed control at 250 g/ha was 0% in assay [7], 30% in [8], 0% in [9] and 0% in the assay on Avena fatua (AVEFA) [10].

On to `Cc1sc(-c2ccc(I)cc2)nc1C1C(=O)[C@@H]2[C@H](C1=O)[C@H]1CC[C@@H]2O1` (stereo partly drawn) [Compound T33], for which the pest or weed control at 250 g/ha stood at 100% in the assay on Setaria faberi (SETFA) [1]; 0% in assay [2]; 100% in assay [3]; 90% in assay [4]; 0% with Avena fatua (AVEFA) [5]; 100% with Setaria faberi (SETFA) [6]. Further, the pest or weed control at 250 g/ha amounted to 60% in assay [7], 100% in [8], 100% in [9] and 100% in the assay on Avena fatua (AVEFA) [10].

In the case of `CCc1sc(-c2ccc(Br)cc2C)nc1C1C(=O)[C@@H]2[C@H](C1=O)[C@H]1CC[C@@H]2O1` (stereo partly drawn) [Compound T35], the pest or weed control at 250 g/ha with Setaria faberi (SETFA) [1] stood at 100%; in assay [2], 0%; in assay [3] it was 100%; in [4], 100%; with Avena fatua (AVEFA) [5], 100%; in the assay with Setaria faberi (SETFA) [6] it was 100%. The pest or weed control at 250 g/ha in [7] is 0%; in [8] it was 100%; in assay [9], 100%; in the assay on Avena fatua (AVEFA) [10] it was 100%.

As to `Cc1sc(-c2ccc(Br)cc2F)nc1C1C(=O)[C@@H]2[C@H](C1=O)[C@H]1CC[C@@H]2O1` (stereo partly drawn) [Compound T36], the pest or weed control at 250 g/ha in the assay with Setaria faberi (SETFA) [1] amounted to 100%; in assay [2] it was 0%; in assay [3] it was 100%; in assay [4], 90%; with Avena fatua (AVEFA) [5], 80%; with Setaria faberi (SETFA) [6], 100%. The pest or weed control at 250 g/ha was found to be 30% in assay [7], 100% in assay [8], 100% in [9] and 100% in the assay on Avena fatua (AVEFA) [10].

For the molecule `Cc1sc(-c2ccc(Cl)s2)nc1C1C(=O)[C@@H]2[C@H](C1=O)[C@H]1CC[C@@H]2O1` (stereo partly drawn) [Compound T37], the pest or weed control at 250 g/ha in the assay with Setaria faberi (SETFA) [1] stood at 90%; in assay [2], 0%; in [3], 40%; in assay [4], 30%; in the assay with Avena fatua (AVEFA) [5], 0%; in the assay with Setaria faberi (SETFA) [6], 90%. Moreover, the pest or weed control at 250 g/ha in [7] amounted to 0%; in [8] it was 90%; in [9], 50%; in the assay on Avena fatua (AVEFA) [10], 10%.

Consider `Cc1sc(-c2ccc(Br)cn2)nc1C1C(=O)[C@@H]2[C@H](C1=O)[C@H]1CC[C@@H]2O1` (stereo partly drawn) [Compound T38], for which the pest or weed control at 250 g/ha worked out at 90% in the assay with Setaria faberi (SETFA) [1]; 0% in [2]; 40% in assay [3]; 0% in assay [4]; 0% in the assay on Avena fatua (AVEFA) [5]; 100% with Setaria faberi (SETFA) [6]. Further, the pest or weed control at 250 g/ha in [7] was 0%; in [8], 100%; in assay [9] it was 90%; in the assay on Avena fatua (AVEFA) [10] it was 90%.

Regarding `Cc1cc(Br)ccc1-c1nc(C2C(=O)[C@@H]3[C@H](C2=O)[C@H]2CC[C@@H]3O2)c(C)s1` (stereo partly drawn) [Compound T39], the pest or weed control at 250 g/ha in the assay with Setaria faberi (SETFA) [1] stood at 90%; in [2], 0%; in assay [3], 80%; in [4] it was 70%; with Avena fatua (AVEFA) [5], 90%; in the assay with Setaria faberi (SETFA) [6] it was 100%. In addition, the pest or weed control at 250 g/ha was 0% in assay [7], 100% in [8], 100% in assay [9] and 100% with Avena fatua (AVEFA) [10].

Consider `CCc1sc(COc2ccc(Cl)cc2)nc1C1C(=O)[C@@H]2[C@H](C1=O)[C@H]1CC[C@@H]2O1` (stereo partly drawn) [Compound T40], for which the pest or weed control at 250 g/ha in the assay with Setaria faberi (SETFA) [1] stood at 100%; in [2], 0%; in [3] it was 100%; in assay [4], 90%; with Avena fatua (AVEFA) [5] it was 40%; with Setaria faberi (SETFA) [6], 100%. The pest or weed control at 250 g/ha in assay [7] was 0%; in assay [8], 100%; in assay [9], 100%; in the assay with Avena fatua (AVEFA) [10], 70%.

Regarding `Cc1sc(-c2ccc(OC(F)F)cc2)nc1C1C(=O)[C@@H]2[C@H](C1=O)[C@H]1CC[C@@H]2O1` (stereo partly drawn) [Compound T41], the pest or weed control at 250 g/ha turned out to be 100% with Setaria faberi (SETFA) [1]; 0% in [2]; 100% in assay [3]; 100% in assay [4]; 30% in the assay on Avena fatua (AVEFA) [5]; 100% in the assay with Setaria faberi (SETFA) [6]. Moreover, the pest or weed control at 250 g/ha in [7] was determined as 0%; in [8], 100%; in [9], 100%; with Avena fatua (AVEFA) [10] it was 90%.
